This assay concerns S. aureus (ATCC 6538). Kind of assay: Efficacy of N-halamine compounds against S. aureus in aqueous solution (Example 20). It is filed as cell-based, Staphylococcus aureus. The following applies: pH 7.0; 22 ° C.; chlorine-demand-free water; 5 or 10 milligrams/liter total chlorine. How it is done: The bacterial efficacies of the compounds against S. aureus (ATCC 6538) in chlorine-demand-free water were determine by using techniques employed previously in extensive detail by Williams et al., Appl. Environ. Microbial., 54:2583 (1987). Solutions containing 10^6 CFU final cell densities of bacteria were prepared and treated with the various disinfectant compounds described in examples 1-17 at either 5 or 10 milligrams/liter total chlorine concentration which was previously determined by titration using a stock solution with sodium thiosulfate. Aliquots were removed at several predetermined times, and the active halogen was quenched by sterile 0.02 normal sodium thiosulfate. Serial dilutions were made into sterile saline, and three 25 microliter aliquots of each dilution were applied to the dried surface of a Petri dish containing nutrient agar. After incubation at 37° C. for 48 hours, the three replicates for each dilution were counted and averaged. Control samples containing no disinfectant, or in some cases, unchlorinated precursor compounds, were handled in the same manner. […] Inactivation of the organism was considered to be at least 99.9999% when no colonies were detected in the thiosulfate-quenched aliquots.

Structures are written as SMILES. Where only a bound is given, the exact number is not on record here.

Take `C=CC(=O)OCC1(CC)COC(=O)N1Br` (stereo not shown) [Polymer 1a-Br, 3-bromo-4-(acryloxymethyl)-4-ethyl-2-oxazolidinone]: the “Contact Time for 6-log Inactivation of S. aureus” value is reported as below 5 min.

These data come from patent US6469177B1, “Surface active N-Halamine compounds” (Auburn University, priority 1997, dated 2002).
